In US20250145594A1, “MODULATORS OF THE INTEGRATED STRESS PATHWAY” (Calico Life Sciences LLC, priority 2020, published 2025):
pEC50: −log10 of the molar value.

System: ATF4 luciferase reporter in HEK293T cells
Test: ATF4-Luc assay (in vitro model of VWMD)
Type: cell-based, human
Conditions: Homo sapiens, HEK-293T, 7 h, HEK293T cells carrying the ATF4 luciferase reporter, 1 μg/mL tunicamycin, One Glo luminescence
Summary of the method: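 Stable HEK293T line expressing firefly luciferase behind the human ATF4 5′-UTR, treated with 1 μg/mL tunicamycin plus compound for 7 hours. Luminescence read with One Glo; EC50 determined.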

| SMILES | pEC50 |
| --- | --- |
| O=C(NC12CC(n3cc(-c4cnn(CC(F)(F)F)c4)cn3)(C1)C2)[C@H]1C[C@@H](O)c2cc(Cl)ccc2O1 [Compound 563, (2R,4R)-6-chloro-4-hydroxy-N-{3-[1′-(2,2,2-trifluoroethyl)-1H,1′H-[4,4′-bipyrazol]-1-yl]bicyclo[1.1.1]pentan-1-yl}-3,4-dihydro-2H-1-benzopyran-2-carboxamide] | > 8.00 |
| O=C(NC12CCC(n3cc(C(=O)N4CC[C@H](OC(F)(F)F)C4)cn3)(CC1)CC2)[C@H]1C[C@@H](O)c2cc(Cl)ccc2O1 [Compound 331, (2R,4R)-6-chloro-4-hydroxy-N-(4-{4-[(3S)-3-(trifluoromethoxy)pyrrolidine-1-carbonyl]-1H-pyrazol-1-yl}bicyclo[2.2.2]octan-1-yl)-3,4-dihydro-2H-1-benzopyran-2-carboxamide] | > 8.00 |
| O=C(NC12CC(n3cc(-c4ccc(OC(F)F)nc4)cn3)(C1)C2)[C@H]1C[C@@H](O)c2cc(Cl)ccc2O1 [Compound 327, (2R,4R)-6-chloro-N-(3-{4-[6-(difluoromethoxy)pyridin-3-yl]-1H-pyrazol-1-yl}bicyclo[1.1.1]pentan-1-yl)-4-hydroxy-3,4-dihydro-2H-1-benzopyran-2-carboxamide] | > 8.00 |
| O=C(NC12CC(n3cc(OCCOC(F)(F)F)cn3)(C1)C2)[C@H]1C[C@@H](O)c2cc(Cl)c(F)cc2O1 [Compound 413, (2R,4R)-6-chloro-7-fluoro-4-hydroxy-N-(3-{4-[2-(trifluoromethoxy)ethoxy]-1H-pyrazol-1-yl}bicyclo[1.1.1]pentan-1-yl)-3,4-dihydro-2H-1-benzopyran-2-carboxamide] | > 8.00 |
| O=C(NC12CC(n3cc(C(=O)N4CC[C@H](OC(F)(F)F)C4)cn3)(C1)C2)[C@@H]1C[C@@H](O)c2cc(Cl)ccc2O1 [Compound 324, (2S,4R)-6-chloro-4-hydroxy-N-(3-{4-[(3S)-3-(trifluoromethoxy)pyrrolidine-1-carbonyl]-1H-pyrazol-1-yl}bicyclo[1.1.1]pentan-1-yl)-3,4-dihydro-2H-1-benzopyran-2-carboxamide] | > 8.00 |
| O=C(NC12CC(n3cc(OCCOC(F)(F)F)cn3)(C1)C2)[C@H]1C[C@@H](O)c2cc(Cl)c(Cl)cc2O1 [Compound 442, (2R,4R)-6,7-dichloro-4-hydroxy-N-(3-{4-[2-(trifluoromethoxy)ethoxy]-1H-pyrazol-1-yl}bicyclo[1.1.1]pentan-1-yl)-3,4-dihydro-2H-1-benzopyran-2-carboxamide] | > 8.00 |
| O=C(NC12CC(n3cc(O[C@H]4C[C@@H](OC(F)(F)F)C4)cn3)(C1)C2)[C@H]1C[C@@H](O)c2cc(Cl)ccc2O1 [Compound 409, (2R,4R)-6-chloro-4-hydroxy-N-[3-(4-{[cis-3-(trifluoromethoxy)cyclobutyl]oxy}-1H-pyrazol-1-yl)bicyclo[1.1.1]pentan-1-yl]-3,4-dihydro-2H-1-benzopyran-2-carboxamide] | > 8.00 |
| O=C(CO[C@H]1C[C@@H](OC(F)(F)F)C1)NC12CCC(NC(=O)[C@@H]3C[C@@H](O)c4cc(Cl)ccc4O3)(CC1)C[C@@H]2O (single isomer, unassigned) [Compound 279] | > 8.00 |
| O=C(CO[C@H]1C[C@@H](OC(F)(F)F)C1)NC12CC(NC(=O)[C@H]3C[C@@H](O)c4cc(Cl)ccc4O3)(C1)C2 [Compound 164, (2R,4R)-6-chloro-4-hydroxy-N-[3-(2-{[cis-3-(trifluoromethoxy)cyclobutyl]oxy}acetamido)bicyclo[1.1.1]pentan-1-yl]-3,4-dihydro-2H-1-benzopyran-2-carboxamide] | > 8.00 |
| COc1ccc2nn(C34CC(NC(=O)C5CNc6cc(C(F)(F)F)c(F)cc6O5)(C3)C4)cc2c1 (stereo not shown) [Compound 653, 7-fluoro-N-[3-(5-methoxy-2H-indazol-2-yl)bicyclo[1.1.1]pentan-1-yl]-6-(trifluoromethyl)-3,4-dihydro-2H-1,4-benzoxazine-2-carboxamide] | 6.60 to 7.30 |
| O=C(N[C@H]1C[C@H]2O[C@@H]1C[C@@H]2c1nnc([C@H]2C[C@@H](OC(F)(F)F)C2)o1)[C@@H]1C[C@H](O)c2cc(Cl)ccc2O1 (mixture of isomers) [Compound 186, (2S,4S)-6-chloro-4-hydroxy-N-[(1RS,2SR,4RS,5SR)-5-{5-[cis-3-(trifluoromethoxy)cyclobutyl]-1,3,4-oxadiazol-2-yl}-7-oxabicyclo[2.2.1]heptan-2-yl]-3,4-dihydro-2H-1-benzopyran-2-carboxamide] | 7.30 to 8.00 |
| O=C(NC12CC(n3cc(C(=O)N4CC[C@H](OC(F)(F)F)C4)cn3)(C1)C2)[C@@H]1C[C@@H](O)c2cc(C(F)(F)F)ccc2O1 [Compound 378, (2S,4R)-4-hydroxy-N-(3-{4-[(3S)-3-(trifluoromethoxy)pyrrolidine-1-carbonyl]-1H-pyrazol-1-yl}bicyclo[1.1.1]pentan-1-yl)-6-(trifluoromethyl)-3,4-dihydro-2H-1-benzopyran-2-carboxamide] | > 8.00 |
| COc1ccc2nn(C34CC(NC(=O)[C@H]5C[C@@H](O)c6cc(Cl)ccc6O5)(C3)C4)cc2n1 [Compound 462, (2R,4R)-6-chloro-4-hydroxy-N-[3-(5-methoxy-2H-pyrazolo[4,3-b]pyridin-2-yl)bicyclo[1.1.1]pentan-1-yl]-3,4-dihydro-2H-1-benzopyran-2-carboxamide] | > 8.00 |
| O=C(NC12CC(n3cc(N4CC[C@@H](OC(F)(F)F)C4)cn3)(C1)C2)[C@@H]1C[C@@H](O)c2cc(Cl)c(F)cc2O1 [Compound 379, (2S,4R)-6-chloro-7-fluoro-4-hydroxy-N-(3-{4-[(3R)-3-(trifluoromethoxy)pyrrolidin-1-yl]-1H-pyrazol-1-yl}bicyclo[1.1.1]pentan-1-yl)-3,4-dihydro-2H-1-benzopyran-2-carboxamide] | > 8.00 |
| O=C(NC12CC(n3cnc(-c4c(F)cc(Cl)cc4F)c3)(C1)C2)[C@H]1C[C@@H](O)c2cc(Cl)ccc2O1 [Compound 344, (2R,4R)-6-chloro-N-{3-[4-(4-chloro-2,6-difluorophenyl)-1H-imidazol-1-yl]bicyclo[1.1.1]pentan-1-yl}-4-hydroxy-3,4-dihydro-2H-1-benzopyran-2-carboxamide] | > 8.00 |
| O=C(NC12CC(n3cc(C(=O)N4CC[C@@H](OC(F)(F)F)C4)cn3)(C1)C2)[C@H]1C[C@@H](O)c2cc(Cl)ccc2O1 [Compound 370, (2R,4R)-6-chloro-4-hydroxy-N-(3-{4-[(3R)-3-(trifluoromethoxy)pyrrolidine-1-carbonyl]-1H-pyrazol-1-yl}bicyclo[1.1.1]pentan-1-yl)-3,4-dihydro-2H-1-benzopyran-2-carboxamide] | 7.30 to 8.00 |
| O=C(NC12CC(n3cc(OCCOC(F)(F)F)cn3)(C1)C2)[C@H]1C[C@H](O)c2cc(Cl)c(Cl)cc2O1 [Compound 436, (2R,4S)-6,7-dichloro-4-hydroxy-N-(3-{4-[2-(trifluoromethoxy)ethoxy]-1H-pyrazol-1-yl}bicyclo[1.1.1]pentan-1-yl)-3,4-dihydro-2H-1-benzopyran-2-carboxamide] | > 8.00 |
| O=C(COc1ccc(Cl)cc1O)NC12CC(n3cc([C@H]4C[C@@H](OC(F)(F)F)C4)nn3)(C1)C2 [Compound 618, 2-(4-chloro-2-hydroxyphenoxy)-N-(3-{4-[(1s,3s)-3-(trifluoromethoxy)cyclobutyl]-1H-1,2,3-triazol-1-yl}bicyclo[1.1.1]pentan-1-yl)acetamide] | 7.30 to 8.00 |
| O=C(NC12CC(n3cc(OCCCOC(F)(F)F)cn3)(C1)C2)[C@H]1C[C@@H](O)c2cc(C(F)(F)F)c(F)cc2O1 [Compound 635, (2R,4R)-7-fluoro-4-hydroxy-N-(3-{4-[3-(trifluoromethoxy)propoxy]-1H-pyrazol-1-yl}bicyclo[1.1.1]pentan-1-yl)-6-(trifluoromethyl)-3,4-dihydro-2H-1-benzopyran-2-carboxamide] | > 8.00 |
| O=C(NC12CC(n3cc(C(=O)N4CC(COC(F)(F)F)C4)cn3)(C1)C2)[C@H]1C[C@@H](O)c2ccccc2O1 [Compound 375, (2R,4R)-4-hydroxy-N-[3-(4-{3-[(trifluoromethoxy)methyl]azetidine-1-carbonyl}-1H-pyrazol-1-yl)bicyclo[1.1.1]pentan-1-yl]-3,4-dihydro-2H-1-benzopyran-2-carboxamide] | 6.30 to 6.60 |
| O=C(NC12CC(n3cc(C(=O)N4CC(COC(F)(F)F)C4)cn3)(C1)C2)[C@H]1C[C@@H](O)c2cc(Cl)ccc2O1 [Compound 329, (2R,4R)-6-chloro-4-hydroxy-N-[3-(4-{3-[(trifluoromethoxy)methyl]azetidine-1-carbonyl)-1H-pyrazol-1-yl}bicyclo[1.1.1]pentan-1-yl]-3,4-dihydro-2H-1-benzopyran-2-carboxamide] | > 8.00 |
| O=C(NC12CC(n3cc(-c4ccc(OC(F)(F)F)c(F)c4)cn3)(C1)C2)[C@@H]1C[C@@H](O)c2cc(Cl)ccc2O1 [Compound 306, (2S,4R)-6-chloro-N-(3-{4-[3-fluoro-4-(trifluoromethoxy)phenyl]-1H-pyrazol-1-yl}bicyclo[1.1.1]pentan-1-yl)-4-hydroxy-3,4-dihydro-2H-1-benzopyran-2-carboxamide] | > 8.00 |
| O=C(NC12CC(n3cc(NCCOC(F)(F)F)cn3)(C1)C2)[C@H]1C[C@@H](O)c2cc(Cl)ccc2O1 [Compound 437, (2R,4R)-6-chloro-4-hydroxy-N-[3-(4-{[2-(trifluoromethoxy)ethyl]amino}-1H-pyrazol-1-yl)bicyclo[1.1.1]pentan-1-yl]-3,4-dihydro-2H-1-benzopyran-2-carboxamide] | 7.30 to 8.00 |
| O=C(COc1ccc(Cl)c(F)c1)NC12CC(n3cc(OCCOC(F)(F)F)cn3)(C1)C2 [Compound 451, 2-(4-chloro-3-fluorophenoxy)-N-(3-{4-[2-(trifluoromethoxy)ethoxy]-1H-pyrazol-1-yl}bicyclo[1.1.1]pentan-1-yl)acetamide] | > 8.00 |
| O=C(NC12CC(n3cc([C@H]4C[C@@H](OC(F)(F)F)C4)nn3)(C1)C2)[C@H]1C[C@@H](O)c2cc(Cl)c(F)cc2O1 [Compound 473, (2R,4R)-6-chloro-7-fluoro-4-hydroxy-N-(3-{4-[(1s,3S)-3-(trifluoromethoxy)cyclobutyl]-1H-1,2,3-triazol-1-yl}bicyclo[1.1.1]pentan-1-yl)-3,4-dihydro-2H-1-benzopyran-2-carboxamide] | > 8.00 |
